Reference: patent US20250170183A1, “METHOD FOR ENRICHING MUSE CELLS AND OBTAINING EXOSOMES, MICROVESICLES OR THE SECRETOME THEREFROM” (priority 2022, published 2025)

System: Carrageenan-induced paw edema
Assay: Carrageenan-induced paw edema model
Type: in vivo, C57BL/6 mice
Details: single i.p. dose, 1.5 hours after administration; FIG. 5
Procedure: In order to assess the anti-inflammatory effect of the Muse cell derived EVs, various EV fractions were analyzed for anti-inflammatory efficacy using the paw edema model [16].
In our initial experiment, fifty-five female C57BL/6 mice (Charles River, Eastern Europe) were randomly assigned to one of five treatment groups: • (1) (−) Control (PBS) • (2) (+) Control (Dexamethasone: 20-30 mg/kg) • (3) EV100 (1, 10, or 100 billion EVs) • (4) EV500 (1, 10, or 100 billion EVs) • (5) Muse cell enriched culture (100K, 1 million, or 10 million cells)
Paw edema was induced in each animal by intra-plantar injection of 20 μl of a 1% (w/v) aqueous Carrageenan solution (SIGMA Aldrich) into the right hind paw.
Thirty minutes after the carrageenan injection, each animal received one dose of the control agent (treatment groups 1-2) or experimental agents (treatment groups 3-5) according to the respective assigned treatment group. The agent was administered by intra peritoneal (i.p.) injection. PBS was also used to resuspend EV100 and EV500 samples.
The intensity of the edema development and/or the amelioration thereof was assessed by measuring the paw width (the distance from one outer finger to the opposite outer finger) or paw thickness of the treated paw prior to treatment administration, and 2 h, 24 h, 48 h, and 72 h after administration of the control and experimental agents. […]

## C[C@@H]1C[C@H]2[C@@H]3CCC4=CC(=O)C=C[C@]4(C)[C@@]3(F)[C@@H](O)C[C@]2(C)[C@@]1(O)C(=O)CO [dexamethasone]
  paw thickness, immediate response: no effect
